We go through two molecules from patent US10350206B2, “Benzyl substituted indazoles as BUB1 inhibitors” (Bayer Pharma Aktiengesellschaft, priority 2014, dated 2019).

Assay [1] has as its system HeLa human cervical tumor cells. Briefly: Proliferation Assay (HeLa+Paclitaxel). It is filed as cell-based. The settings on record: 3 nM paclitaxel, test substance 92 hours; read-out: Biological Assay 3: Proliferation Assay (HeLa + Paclitaxel) IC50.
Assay [2] relates to Bub1 kinase (histone 2A phosphorylation). The assay is described as follows: H2A Formation-Assay (cell-based mechanistic assay, co-treatment with Nocodazole). The settings on record: 16 h, Nocodazole 1 μg/ml together with test compound for 16 h; read-out: Biological Assay 4.1: H2A Formation IC50.
Assay [3] deals with Bub1 kinase (pre-induced phospho-histone 2A). The assay is described as follows: H2A Abrogation-Assay (cell-based mechanistic assay, pre-treatment with Nocodazole). Conditions: Nocodazole 1 μg/ml 16 h, then test compound 1 h; read-out: Biological Assay 4.2: H2A Abrogation IC50.

In the case of `COc1cnc(-c2nn(Cc3c(F)cc(OCCO)cc3F)c3ccccc23)nc1Nc1ccnc(C)c1` [Example 2-1-2, 2-{3,5-difluoro-4-[(3-{5-methoxy-4-[(2-methylpyridin-4-yl)amino]pyrimidin-2-yl}-1H-indazol-1-yl)methyl]phenoxy}ethanol], the IC50 in assay [1] worked out at 350 nM; in assay [2], 8.7 nM; in assay [3], 11 nM.
On the same counts, the results for `COc1cnccc1Nc1nc(-c2nn(Cc3c(F)cc(OCCO)cc3F)c3ccccc23)ncc1OC` [Example 2-1-3, 2-{3,5-difluoro-4-[(3-{5-methoxy-4-[(3-methoxypyridin-4-yl)amino]pyrimidin-2-yl}-1H-indazol-1-yl)methyl]phenoxy}ethanol] are 63 nM, 43 nM and 29 nM.
